The target of one test is KRAS^G12C (Homo sapiens, UniProt P01116, C118A/G12C). The test is described as follows: Coupled Nucleotide Exchange Assay. Conditions: GDP-bound KRAS (aa 1-169) G12C/C118A; 2 h compound pre-incubation; SOS-mediated exchange, 30 min; cRAF binding (AlphaLISA). In kind it is biochemical. The gist of the method:
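GDP-bound His-tagged KRAS aa 1-169 (G12C/C118A) pre-incubated 2 h with compound in 25 mM HEPES pH 7.4, 10 mM MgCl2, 0.01% Triton X-100 (±0.1% BSA), then SOS (aa 564-1049) plus GTP added for 30 min. GST-cRAF RBD binding read by AlphaLISA; DMSO-normalized, 4-parameter fit gives IC50.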
A general note: Alpha assays give light when donor and acceptor beads are brought close together.

For the next test, the system named is A549 cells. As to the kind of experiment: Cell Viability Assay, A549. The conditions noted are these: A549; human lung carcinoma; 72 h; CellTiter-Glo. The class given is cell-based. Here is the method:
(§1) MIA PaCa-2 (human pancreatic carcinoma; ATCC CRL-1420) or A549 (human lung carcinoma; ATCC CCL-185) cells were cultured in RPMI 1640 medium containing 10% fetal bovine serum and 1×penicillin/streptomycin/L-glutamine. Cells were seeded in 384-well plates at a density of 1.67E+04 cells/mL and incubated at 37° C., 5% CO2, overnight. Serially-diluted compound or DMSO was added to the cells, and plates were incubated at 37° C., 5% CO2 for 72 h. Cell viability was measured using a CellTiter-Glo® Luminescent Cell Viability Assay kit (Promega) according to the manufacturer's protocol. The luminescence signal of treated samples was normalized to DMSO control, and data were analyzed using a 4-parameter logistic model to calculate IC50 values.
(§2) The following data (Table 3) categorizes the IC50 of each compound for inhibiting enzymatic activity of KRAS^G12C in the indicated cells.
(In ATP-based viability assays light output follows the ATP content of the culture.)

The test system of another test is MIA PaCa-2 cells. As to the kind of experiment: Cell Viability Assay, MIA PaCa-2. In kind it is cell-based. The conditions noted are these: Homo sapiens, MIA PaCa-2, 72 h, human pancreatic carcinoma, CellTiter-Glo. Here is the method:
as §1, §2

pIC50: −log10 of the molar value.

Chain of KRAS^G12C (P01116 1-169 isoform P01116-2 G12C/C118A): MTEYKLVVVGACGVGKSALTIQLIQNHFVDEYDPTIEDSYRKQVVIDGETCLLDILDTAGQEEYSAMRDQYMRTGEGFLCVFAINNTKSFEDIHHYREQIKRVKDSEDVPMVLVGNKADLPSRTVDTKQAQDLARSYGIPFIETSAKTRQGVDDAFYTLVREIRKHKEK

For the molecule `C=CC(=O)N1CCN([C@@H]2CN(c3cc(N4CC[C@]5(C[C@H]4C)OCC(CF)n4ncc(C)c45)nc(C(F)F)n3)[C@@H]2C)CC1` (stereo partly drawn) [Compound 3-084, 1-(4-((2R,3R)-1-(2-(difluoromethyl)-6-((2R,4R)-7′-(fluoromethyl)-2,3′-dimethyl-6′,7′-dihydrospiro[piperidine-4,4′-pyrazolo[5,1-c][1,4]oxazin]-1-yl)pyrimidin-4-yl)-2-methylazetidin-3-yl)piperazin-1-yl)prop-2-en-1-one], the pIC50 was 6.75 at KRAS^G12C, below 5.30 with A549 cells and 6.76 in the test with MIA PaCa-2 cells.

With `C=CC(=O)N1CCN([C@@H]2CN(c3cc(N4CC[C@]5(C[C@H]4C)OC[C@H](CO)n4ncc(C)c45)nc(C(F)F)n3)[C@@H]2C)CC1` (single isomer, unassigned) [Compound 3-088-2], the figures for the pIC50 at KRAS^G12C, in the test with A549 cells and in the test with MIA PaCa-2 cells were 7.14, below 5.30 and 6.89, respectively.

Take `C=CC(=O)N1CCN(C2CN(c3cc(N4CCC5(CCCO5)CC4)nc(C(F)(F)F)c3C#N)C2)CC1` [Compound 3-039, 4-(3-(4-acryloylpiperazin-1-yl)azetidin-1-yl)-6-(1-oxa-8-azaspiro[4.5]decan-8-yl)-2-(trifluoromethyl)nicotinonitrile]: the pIC50 on KRAS^G12C is 5.78; in the test with A549 cells, below 5.30; in the test on MIA PaCa-2 cells, 5.62.

Consider `C=CC(=O)N1CCN(C2CN(c3cc(N4CCC5(CC4)OC(C)C=C5C)nc(C(F)(F)F)c3C#N)C2)CC1` (stereo not drawn) [Compound 3-053, 4-(3-(4-Acryloylpiperazin-1-yl)azetidin-1-yl)-6-(2,4-dimethyl-1-oxa-8-azaspiro[4.5]dec-3-en-8-yl)-2-(trifluoromethyl)nicotinonitrile], for which the pIC50 at KRAS^G12C is 6.72; in the test with A549 cells it was below 5.30; in the test on MIA PaCa-2 cells, 6.12.

Consider `C=CC(=O)N1CCN(C2CN(c3cc(N4CCC5(CC4)OCCC5F)nc(C(F)(F)F)c3C#N)C2)CC1` (stereo not drawn) [Compound 3-058, 4-(3-(4-Acryloylpiperazin-1-yl)azetidin-1-yl)-6-(4-fluoro-1-oxa-8-azaspiro[4.5]decan-8-yl)-2-(trifluoromethyl)nicotinonitrile], for which the pIC50 at KRAS^G12C was 6.04; in the test with A549 cells it was below 5.30; in the test with MIA PaCa-2 cells, below 5.30.

Consider `C=CC(=O)N1CCN([C@@H]2CN(c3cc(N4CC[C@]5(C[C@H]4C)OC[C@@H](COC)n4ncc(C)c45)nc(C(F)F)n3)[C@@H]2C)CC1` (single isomer, unassigned) [Compound 3-090-1], for which the values for the pIC50 at KRAS^G12C, with A549 cells and with MIA PaCa-2 cells were 6.84, below 5.30 and 6.71, respectively.

For `C=CC(=O)N1CCN([C@@H]2CN(c3cc(N4CCC5(CC4)OC[C@@H](C)n4ncc(C)c45)nc(C(F)(F)F)n3)[C@@H]2C)CC1` [Compound 3-100, 1-(4-((2R,3R)-1-(6-((7′R)-3′,7′-dimethyl-6′,7′-dihydro-1H-spiro[piperidine-4,4′-pyrazolo[5,1-c][1,4]oxazin]-1-yl)-2-(trifluoromethyl)-4-pyrimidinyl)-2-methyl-3-azetidinyl)-1-piperazinyl)-2-propen-1-one], the pIC50 at KRAS^G12C was 7.40; in the test on A549 cells, below 5.30; in the test on MIA PaCa-2 cells, 6.81.

Turning to `C=CC(=O)N1CCN(C2CN(c3cc(N4CCC5(CC4)O[C@H](C)C=C5Cl)nc(C(F)(F)F)c3C#N)C2)CC1` (single isomer, unassigned) [Compound 3-067-1], the negative logarithm of the IC50 (pIC50) at KRAS^G12C is 6.28; with A549 cells, below 5.30; with MIA PaCa-2 cells, 5.88.

For `C=CC(=O)N1CCN([C@@H]2CN(c3cc(N4CCC5(CC4)OC[C@H](C)n4ncc(C)c45)nc(C(F)(F)F)n3)[C@@H]2C)CC1` [Compound 3-101, 1-(4-((2R,3R)-1-(6-((7′S)-3′,7′-dimethyl-6′,7′-dihydro-1H-spiro[piperidine-4,4′-pyrazolo[5.1-c][1,4]oxazin]-1-yl)-2-(trifluoromethyl)-4-pyrimidinyl)-2-methyl-3-azetidinyl)-1-piperazinyl)-2-propen-1-one], the pIC50 at KRAS^G12C was 7.15; in the test with A549 cells, below 5.30; with MIA PaCa-2 cells, 6.59.

Consider `C=CC(=O)N1CCN([C@@H]2CN(c3cc(N4CCC5(CC4)C(=O)C4(COC4)c4nccc(C)c45)nc(C(F)(F)F)n3)[C@@H]2C)CC1` [Compound 3-099, 4′-methyl-1″-(6-((2R,3R)-2-methyl-3-(4-(2-propenoyl)-1-piperazinyl)-1-azetidinyl)-2-(trifluoromethyl)-4-pyrimidinyl)dispiro[oxetane-3,7′-cyclopenta[b]pyridine-5′,4″-piperidin]-6′-one], for which the negative logarithm of the IC50 (pIC50) on KRAS^G12C is 7.39; in the test with A549 cells, below 5.30; with MIA PaCa-2 cells it was 6.78.

As for `C=CC(=O)N1CCN([C@@H]2CN(c3cc(N4CCC5(CC4)OCC=C5C)nc(C(F)F)c3C)[C@@H]2C)CC1` [Compound 3-057, 1-(4-((2R,3R)-1-(2-(Difluoromethyl)-3-methyl-6-(4-methyl-1-oxa-8-azaspiro[4.5]dec-3-en-8-yl)pyridin-4-yl)-2-methylazetidin-3-yl)piperazin-1-yl) prop-2-en-1-one], the values for the pIC50 at KRAS^G12C, in the test on A549 cells and with MIA PaCa-2 cells were 6.54, below 5.30 and 6.57, respectively.

With `C=CC(=O)N1CCN([C@@H]2CN(c3cc(N4CCC5(CC4)OC(C)(C)c4nccc(C)c45)nc(C(F)(F)F)n3)[C@@H]2C)CC1` [Compound 3-095], the pIC50 on KRAS^G12C was 7.51; with A549 cells, below 5.30; in the test on MIA PaCa-2 cells, 6.80.

Take `C=CC(=O)N1CCN(C2CN(c3cc(N4CCC5(CC4)OCc4cnn(C)c45)nc(C(F)(F)F)c3C#N)C2)CC1` [Compound 3-049, 4-(3-(4-acryloylpiperazin-1-yl)azetidin-1-yl)-6-(1-methyl-1,4-dihydrospiro[furo[3,4-c]pyrazole-6,4′-piperidin]-1′-yl)-2-(trifluoromethyl)nicotinonitrile]: the pIC50 on KRAS^G12C was 6.18; in the test on A549 cells, below 5.30; in the test on MIA PaCa-2 cells it was 6.01.

For `C=CC(=O)N1CCN([C@@H]2CN(c3cc(N4CCC5(CC4)OCCc4nccc(C)c45)nc(C(F)(F)F)n3)[C@@H]2C)CC1` [Compound 3-094, 1-(4-((2R,3R)-2-methyl-1-(6-(4′-methyl-7′,8′-dihydro-1H-spiro[piperidine-4,5′-pyrano[4.3-b]pyridin]-1-yl)-2-(trifluoromethyl)-4-pyrimidinyl)-3-azetidinyl)-1-piperazinyl)-2-propen-1-one], the pIC50 at KRAS^G12C was 7.28; in the test with A549 cells it was below 5.30; with MIA PaCa-2 cells, 6.76.

In the case of `C=CC(=O)N1CCN([C@@H]2CN(c3cc(N4CCC5(CC4)OCCC5=C)nc(C(F)(F)F)n3)[C@@H]2C)CC1` [Compound 3-074, 1-(4-((2R,3R)-2-Methyl-1-(6-(4-methylene-1-oxa-8-azaspiro[4.5]decan8-yl)-2-(trifluoromethyl)pyrimidin-4-yl)azetidin-3-yl)piperazin-1-yl) prop-2-en-1-one], the pIC50 was 6.37 on KRAS^G12C, below 5.30 with A549 cells and 5.94 with MIA PaCa-2 cells.

In the case of `C=CC(=O)N1CCN([C@@H]2CN(c3cc(N4CC[C@]5(C[C@H]4C)OC[C@@H](CO)n4ncc(C)c45)nc(C(F)F)n3)[C@@H]2C)CC1` (single isomer, unassigned) [Compound 3-088-1], the figures for the pIC50 on KRAS^G12C, in the test on A549 cells and with MIA PaCa-2 cells were 6.97, below 5.30 and 6.72, respectively.

As to `C=CC(=O)N1CCN([C@@H]2CN(c3cc(N4CC[C@]5(C[C@H]4C)OC[C@H](CO)n4ncc(C)c45)nc(C(F)(F)F)n3)[C@@H]2C)CC1` (single isomer, unassigned) [Compound 3-087-2], the results for the pIC50 on KRAS^G12C, with A549 cells and with MIA PaCa-2 cells were 7.06, below 5.30 and 6.85, respectively.

`C=CC(=O)N1CCN([C@@H]2CN(c3cc(N4CCC5(CC4)OC4(COC4)c4nccc(C)c45)nc(C(F)F)n3)[C@@H]2C)CC1` [Compound 3-103, 1-(4-((2R,3R)-1-(2-(difluoromethyl)-6-(4′-methyl-1″H-dispiro[oxetane-3,7′-furo[3,4-b]pyridine-5′,4″- piperidin]-1″-yl)-4-pyrimidinyl)-2-methyl-3-azetidinyl)-1-piperazinyl)-2-propen-1-one]: the results for the pIC50 at KRAS^G12C, in the test on A549 cells and in the test with MIA PaCa-2 cells were 7.44, below 5.30 and 6.77, respectively.

Turning to `C=CC(=O)N1CCN([C@@H]2CN(c3cc(N4CCC5(CC4)OCC=C5C)nc(C(F)(F)F)n3)[C@@H]2C)CC1` [Compound 3-061, 1-(4-((2R,3R)-2-Methyl-1-(6-(4-methyl-1-oxa-8-azaspiro[4.5]dec-3-en-8-yl)-2-(trifluoromethyl)pyrimidin-4-yl)azetidin-3-yl)piperazin-1-yl)prop-2-en-1-one], the pIC50 was 6.74 on KRAS^G12C, below 5.30 with A549 cells and 6.03 in the test on MIA PaCa-2 cells.

For orientation: pIC50 means −log10 of the IC50, conventionally taken in molar units. A lower pIC50 goes with a high IC50.
